“And” between values parts separate entries of the source, which are not always exact repeats. Equal entries are not always repeated.
How the values were obtained:
[1] = test system: SNU-5 gastric cancer cells; assay: Inhibition of tumor growth of subcutaneously implanted SNU-5 cells in SCID mice; format: in vivo; settings: for SNU-5 tumor weight at study termination, Mean: Day 38, group mean; for SNU-5 tumor weight at study termination, Mean / SNU-5 tumor weight at study termination, individual animal: in mg (unit assumed); for SNU-5 tumor weight at study termination, individual animal: Day 38, one value per animal ID, listed as Compound 3; for percent tumor weight reduction vs vehicle control: P<0.002
Protocol: SNU-5 cells (CRL-5973, American Type Culture Collection, Manassas, Va.) were cultured in ISCOVE's Modified Dulbecco's Medium (IMDM) (Invitrogen, Carlsbad, Calif.) supplemented with 10% fetal bovine serum (FBS) (Hyclone, Logan, Utah), 100 units/mL of penicillin, […] of streptomycin (Invitrogen, Carlsbad, Calif.), and 2 mM L-glutamine. Cells were cultured for fewer than 4 passages prior to implantation. Female SCID mice (Fox Chase SCID, CB-17, mice weighing 17 to 19 g obtained from Charles River Laboratories, Wilmington, Mass.) were injected subcutaneously (s.c.) with 5×10^6 SNU-5 cells into the right dorsal axillary region on Day 0. Treatments were initiated on Day 25 when the average tumor volume reached approximately 358 mm^3.
Compound 1, formulated in a vehicle containing 30% (w/v) Propylene Glycol and 10% Solutol (Sigma-Aldrich, St Louis, Mo.) as a suspended homogenous form, was administered orally (p.o.) once daily (QD) at total daily doses of 3, 10, and 30 mg/kg/day for 14 days. Tumor volumes (calculated using the ellipsoid formula, (length×width^2)/2, where length and width represented the largest and smallest dimensions of the tumor, respectively) were recorded for two weeks after the initiation of treatment. The study was terminated 38 days after tumor implantation.

c-Met [2] = biological target: T1, c-Met (Homo sapiens, UniProt P08581); assay: Inhibition of c-Met activity in Snu5 gastric carcinoma cells (Snu5-AP1-Luc-Pest luciferase); format: cell-based; set-up: is a human gastric carcinoma known to overexpress c-Met, which is constitutively active; host or cells: Snu5 human gastric carcinoma cells transduced with a 6xAP1-luciferase-PEST reporter (Snu5-AP1-Luc-Pest); settings: 6 hours, luciferase luminescence
T1 sequence (P08581 25-1390): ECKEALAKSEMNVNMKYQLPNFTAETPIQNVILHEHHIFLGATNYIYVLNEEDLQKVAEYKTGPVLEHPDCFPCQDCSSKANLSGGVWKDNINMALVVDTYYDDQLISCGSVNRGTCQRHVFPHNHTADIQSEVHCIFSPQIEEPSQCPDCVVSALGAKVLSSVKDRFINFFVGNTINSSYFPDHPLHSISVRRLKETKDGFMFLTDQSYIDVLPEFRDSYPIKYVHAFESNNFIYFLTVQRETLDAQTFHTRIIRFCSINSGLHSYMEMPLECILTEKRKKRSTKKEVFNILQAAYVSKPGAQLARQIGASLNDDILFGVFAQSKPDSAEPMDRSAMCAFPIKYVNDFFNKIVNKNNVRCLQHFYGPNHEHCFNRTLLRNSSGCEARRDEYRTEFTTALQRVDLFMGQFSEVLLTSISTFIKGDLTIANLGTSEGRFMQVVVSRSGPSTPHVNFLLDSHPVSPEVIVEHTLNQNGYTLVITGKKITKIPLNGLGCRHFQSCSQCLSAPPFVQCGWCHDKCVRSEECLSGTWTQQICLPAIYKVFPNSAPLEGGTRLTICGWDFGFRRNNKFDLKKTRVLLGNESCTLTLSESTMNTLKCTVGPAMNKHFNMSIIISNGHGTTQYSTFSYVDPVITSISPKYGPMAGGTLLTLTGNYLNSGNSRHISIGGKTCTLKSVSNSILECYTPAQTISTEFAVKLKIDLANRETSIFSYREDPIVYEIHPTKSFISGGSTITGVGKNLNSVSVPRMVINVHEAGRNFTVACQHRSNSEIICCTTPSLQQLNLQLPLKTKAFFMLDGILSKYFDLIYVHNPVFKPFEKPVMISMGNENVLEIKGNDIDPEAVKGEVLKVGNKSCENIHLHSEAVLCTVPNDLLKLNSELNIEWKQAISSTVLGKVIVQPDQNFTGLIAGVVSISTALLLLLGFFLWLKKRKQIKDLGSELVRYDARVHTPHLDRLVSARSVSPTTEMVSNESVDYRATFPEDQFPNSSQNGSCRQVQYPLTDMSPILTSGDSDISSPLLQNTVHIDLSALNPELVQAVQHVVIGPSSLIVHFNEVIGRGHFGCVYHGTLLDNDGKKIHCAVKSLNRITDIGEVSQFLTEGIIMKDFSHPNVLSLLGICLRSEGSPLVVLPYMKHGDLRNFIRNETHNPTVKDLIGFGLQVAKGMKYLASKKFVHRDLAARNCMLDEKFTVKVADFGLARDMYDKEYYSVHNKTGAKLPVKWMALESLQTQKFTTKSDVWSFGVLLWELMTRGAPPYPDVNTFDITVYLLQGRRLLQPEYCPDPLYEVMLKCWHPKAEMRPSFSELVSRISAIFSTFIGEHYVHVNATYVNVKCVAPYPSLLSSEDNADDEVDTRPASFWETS
Source text: Compound 1 was also screened for its ability to inhibit the Luciferase-induced signal in an engineered Snu5 cell line. Snu5 [obtained from American Type Culture Collection (Catalog number CRL-5973)] is a human gastric carcinoma known to overexpress c-Met, which is constitutively active. The cell line was transduced with the retrovirus, pCLPCX, which contains a genetic construct consisting of 6×AP1 promoter response elements and a luciferase gene having a C-terminal PEST sequence (proteolytic signal from mouse ornithine decarboxylase, which reduces the half-life of the luciferase). The constitutively active c-Met activates cellular pathways (principally MAP kinase), resulting in AP-1-induced transcription of luciferase-PEST and translation into the final product, the activity of which is quantifiable as a chemiluminescent readout upon the addition of luciferin (Steady-Glo from Promega.). Residual luminescence is strongly correlated to the inhibition of c-Met. A stable cell line was obtained by selecting the new cell line (Snu5-AP1-Luc-Pest) with puromycin. […] The Snu5-AP1-Luc-Pest cells were counted and diluted to 200,000-cells/mL solution. […] The plate was read on a 1450 Microbeta Liquid Scintillation and Luminescence Counter (Perkin-Elmer).

[3] = test system: A549 cells (A549HGF-lm1115); assay: Inhibition of tumor metastasis to the lungs, subcutaneous A549HGF tumors in SCID mice; format: in vivo; settings: for Luminescence of homogenized lung tissue, Mean / Luminescence of homogenized lung tissue, individual animal: study termination; for Luminescence of homogenized lung tissue, Mean: group mean; for Luminescence of homogenized lung tissue, individual animal: one value per animal ID
Protocol: Compound 1 was investigated for its ability to inhibit the metastasis of subcutaneously implanted tumors to the lungs of severe combined immunodeficient (SCID) mice. Accordingly, A549 cells (A549HGF-lm1115, transfected with hepatocyte growth factor, luciferase, and green fluorescent protein) were cultured in RPMI1640 medium (Invitrogen, Carlsbad, Calif.) supplemented with 10% fetal bovine serum (FBS) (Hyclone, Logan, Utah), 100 units/mL of penicillin, […] of streptomycin (Invitrogen, Carlsbad, Calif.), and 2 mM L-glutamine for fewer than 4 passages prior to implantation. 3-(Difluoro(quinolin-6-yl)methyl)-N-(1-methyl-1H-pyrazol-4-yl)-[1,2,4]triazolo[3,4-b][1,3,4]thiadiazol-6-amine (Compound 1) was formulated in a vehicle containing 0.5% (w/v) methylcellulose (Sigma-Aldrich, St Louis, Mo.) and 0.1% (v/v) Tween 80™ as a dissolved homogenous form, which was prepared fresh each day and administered to mice via oral gavage at a dosing volume of 10 mL/kg.
Female SCID mice were injected subcutaneously (s.c.) with 5×10^6 A549HGF cells into the right dorsal axillary region on Day 0. Treatments were initiated on the same day by oral administration (p.o.) of Compound 1 once daily (QD) at total daily doses of 30 and 60 mg/kg/day for 22 days. Ectopic tumor measurements were recorded twice a week for 3 weeks after the initiation of treatment.
In order to evaluate the anti-metastatic potential of Compound 1, at the termination of the study all animal lung tissues were harvested and lysed by homogenization for ex vivo quantification via luciferase luminescence.

c-Met [4] = biological target: T1, c-Met; assay: c-Met kinase inhibition assay (radiometric, 33P-ATP, polyE4Y); format: biochemical; settings: 0.5 nM c-Met, 35 μM ATP, competitive tight-binding fit
Protocol: Compound 1 was screened for its ability to inhibit c-Met kinase using a standard radiometric assay. Briefly, in this kinase assay the transfer of the terminal ^33P-phosphate in ^33P-ATP to substrate polyE4Y is interrogated. The assay was carried out in 96-well plates to a final volume of 100 μL per well containing 0.5 nM c-Met, 100 mM HEPES (pH 7.5), 10 mM MgCl2, 25 mM NaCl, 0.01% BSA, 1 mM DTT, 0.5 mg/mL polyE4Y, and 35 μM ATP. Accordingly, Compound 1 was dissolved in DMSO to make a 10 mM initial stock solution. Serial dilutions in DMSO were then made to obtain the final solutions for the assay. A 1.5 μL aliquot of DMSO or inhibitor in DMSO was added to each well, followed by the addition of ^33P-ATP, and finally the addition of c-Met and polyE4Y (obtained from Sigma). After 20 min, the reaction was quenched with 50 μL of 30% trichloroacetic acid (TCA) containing 4 mM ATP. The reaction mixture was transferred to the 0.66 mm GF filter plates (Corning) and washed three times with 5% TCA. Following the addition of 50 μL of Ultimate Gold™ high efficiency scintillant (Packard Bioscience), the samples were counted in a Packard TopCount NXT Microplate Scintillation and Luminescence Counter (Packard BioScience). The Ki values were calculated using Microsoft Excel Solver macros to fit the data to the kinetic model for competitive tight-binding inhibition.

- IC50 (c-Met [2]): < 20 nM
- Ki (c-Met [4]): < 20 nM
Compound: Cn1cc(Nc2nn3c(C(F)(F)c4ccc5ncccc5c4)nnc3s2)cn1 [Compound 1, 3-(difluoro(quinolin-6-yl)methyl)-N-(1-methyl-1H-pyrazol-4-yl)-[1,2,4]triazolo[3,4-b][1,3,4]thiadiazol-6-amine]
- SNU-5 tumor volume ([1]; 3 mg/kg/day p.o. QD, Day 25 (treatment start), mean ± standard error): 356.1 ± 24.5 mm^3
- SNU-5 tumor volume ([1]; 3 mg/kg/day p.o. QD, Day 28, mean ± standard error): 432.6 ± 31.2 mm^3
- SNU-5 tumor volume ([1]; 3 mg/kg/day p.o. QD, Day 31, mean ± standard error): 511.9 ± 36.3 mm^3
- SNU-5 tumor volume ([1]; 3 mg/kg/day p.o. QD, Day 35, mean ± standard error): 587.8 ± 39.5 mm^3
- SNU-5 tumor volume ([1]; 3 mg/kg/day p.o. QD, Day 38, mean ± standard error): 670.4 ± 46.2 mm^3
- SNU-5 tumor weight at study termination, Mean ([1]; 3 mg/kg/day): 619.9
- SNU-5 tumor weight at study termination, individual animal ([1]; 3 mg/kg/day): 619 and 505 and 525 and 485 and 605 and 655 and 851 and 770 and 405 and 790 and 938 and 508 and 368 and 679 and 596
- percent tumor weight reduction vs vehicle control ([1]; 3 mg/kg/day): 34.5%
- SNU-5 tumor volume ([1]; 10 mg/kg/day p.o. QD, Day 25 (treatment start), mean ± standard error): 358.0 ± 17.1 mm^3
- SNU-5 tumor volume ([1]; 10 mg/kg/day p.o. QD, Day 28, mean ± standard error): 354.2 ± 21.7 mm^3
- SNU-5 tumor volume ([1]; 10 mg/kg/day p.o. QD, Day 31, mean ± standard error): 381.8 ± 25.6 mm^3
- SNU-5 tumor volume ([1]; 10 mg/kg/day p.o. QD, Day 35, mean ± standard error): 406.6 ± 23.4 mm^3
- SNU-5 tumor volume ([1]; 10 mg/kg/day p.o. QD, Day 38, mean ± standard error): 453.9 ± 27.3 mm^3
- SNU-5 tumor weight at study termination, Mean ([1]; 10 mg/kg/day): 385.7
- SNU-5 tumor weight at study termination, individual animal ([1]; 10 mg/kg/day): 319 and 476 and 358 and 469 and 279 and 660 and 418 and 400 and 387 and 410 and 349 and 275 and 305 and 371 and 309
- percent tumor weight reduction vs vehicle control ([1]; 10 mg/kg/day): 59.3%
- SNU-5 tumor volume ([1]; 30 mg/kg/day p.o. QD, Day 25 (treatment start), mean ± standard error): 359.5 ± 35.1 mm^3
- SNU-5 tumor volume ([1]; 30 mg/kg/day p.o. QD, Day 28, mean ± standard error): 281.3 ± 28.7 mm^3
- SNU-5 tumor volume ([1]; 30 mg/kg/day p.o. QD, Day 31, mean ± standard error): 256.5 ± 23.6 mm^3
- SNU-5 tumor volume ([1]; 30 mg/kg/day p.o. QD, Day 35, mean ± standard error): 255.7 ± 21.1 mm^3
- SNU-5 tumor volume ([1]; 30 mg/kg/day p.o. QD, Day 38, mean ± standard error): 273.4 ± 24.2 mm^3
- SNU-5 tumor weight at study termination, Mean ([1]; 30 mg/kg/day): 251.2
- SNU-5 tumor weight at study termination, individual animal ([1]; 30 mg/kg/day): 180 and 173 and 260 and 420 and 250 and 156 and 350 and 327 and 150 and 246
- tumor regression by tumor volume analysis ([1]; 30 mg/kg/day, P<0.001): −23.9%
- percent tumor weight reduction vs vehicle control ([1]; 30 mg/kg/day): 73.5%
- anti-tumor activity ([1]; all three dose levels tested (3, 10, 30 mg/kg/day)): significant and dose-dependent anti-tumor activity
- Luminescence of homogenized lung tissue, Mean ([3]; 30 mg/kg/day): 12740.8 counts
- Luminescence of homogenized lung tissue, individual animal ([3]; 30 mg/kg/day): 3890 counts and 5270 counts and 2270 counts and 2620 counts and 17200 counts and 21300 counts and 6430 counts and 4340 counts and 65400 counts and 2230 counts and 16300 counts and 5640 counts
- formation of lung metastases ([3]; 60 mg/kg/day compared to vehicle controls, p<0.02): significantly inhibits
- Luminescence of homogenized lung tissue, Mean ([3]; 60 mg/kg/day, p<0.02 vs vehicle): 6672.3±1986.1 counts and 6672.3 counts
- Luminescence of homogenized lung tissue, individual animal ([3]; 60 mg/kg/day): 2170 counts and 1480 counts and 2540 counts and 19300 counts and 21100 counts and 3800 counts and 16500 counts and 1440 counts and 2620 counts and 2920 counts and 5540 counts and 4860 counts and 2470 counts
- change in primary A549 tumor cell growth at the site of implantation vs vehicle ([3]; 30 or 60 mg/kg/day p.o. QD, 22 days): no significant change

From patent publication US8263777B2, “Aminopyrazole triazolothiadiazole inhibitor of c-Met protein kinase” (Vertex Pharmaceuticals Incorporated, priority 2010, dated 2012)
